27 molecules from US5888763A, “Peptides specific for the first Crk-SH3 domain” (The Rockefeller University, priority 1994, dated 1999) can be followed below.

Like-named read-outs stand apart in the source and are kept apart here. Where a SMILES comes first, the peptide text is derived from it. Where no end group is shown, it is not given here.

One assay has as its target T1, v-Crk (Avian sarcoma virus CT10, UniProt P05433).
T1 construct: made in house; host or cells: bacteria
Nature of the assay: Tryptophan fluorescence titration of peptides with gst-v-Crk. The class given is binding. As to conditions: Table 3; fluorescence measurements. An excerpt: (§1) Fluorescence Measurements. The fluorescence measurements were based predominantly on the interactions of the peptides with the aromatic residues, predominantly Trp (Yu et al., 1994, Cell 76:933) in the CrkSH3 domain.
(§2) Measurements were made with a Perkin-Elmer 760-40 fluorescence spectrophotometer at a excitation wavelength of 290 nm (slitwidth 2 nm) and an emission wavelength of 345 nm (slitwidth 17 nm). A mini-magnetic stirrer, CUV-O-STIR model 333 (HELLMA, Long Island, N.Y.) was used to mix the solution in a 1 cm square quartz fluorescence cell. A circulating water bath was used to maintain the sample temperature at 18° C. To obtain the titration curves for calculations of the binding constants, peptides from a stock solution of 5 mg/ml in TBS, 0.05% Tween-20 were added in small increments to a 1 ml volume of 0.5 μM SH3 domain in PBS, 1 mM Dithiothreitol (DTT).
(§3) Calculation of the binding constant. Since the concentration of the SH3-domain containing protein was low, the experimental data were fitted to the following equation:
(§4) F=Fmax *[peptide]/(Kd +[peptide]) (1)
(§5) Non-linear regression curve fitting using SigmaPlot (Jandel Scientific, San Rafael, Calif.) was carried out to fit the experimental data to equation (1) with Fmax and Kd as fitted parameters.

Another assay deals with T2, c-CrkSH3(1) (Mus musculus, UniProt Q64010).
T2 construct: made in house; host or cells: bacteria
As to the kind of experiment: Tryptophan fluorescence titration of peptides with gst-c-CrkSH3(1). The class given is binding, murine. As to conditions: fluorescence measurements.
Source text: as §1, §2, §3, §4, §5

The target in a further assay is T3, Grb2 SH3 domain (Homo sapiens, UniProt P62993).
T3 construct: made in house; host or cells: bacteria
T3 sequence (P62993 whole entry, the tested form may be a part): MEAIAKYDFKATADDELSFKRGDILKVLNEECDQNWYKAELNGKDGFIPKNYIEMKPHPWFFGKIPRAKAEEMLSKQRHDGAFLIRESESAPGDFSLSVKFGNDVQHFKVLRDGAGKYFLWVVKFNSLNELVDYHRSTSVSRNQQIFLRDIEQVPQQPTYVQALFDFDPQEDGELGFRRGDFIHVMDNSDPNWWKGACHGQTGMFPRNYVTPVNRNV
Nature of the assay: Tryptophan fluorescence titration of peptides with gst-Grb2. The class given is binding.

Another assay has as its target T4, CRKL (Homo sapiens, UniProt P46109).
T4 construct: made in house; host or cells: bacteria
As to the kind of experiment: Tryptophan fluorescence titration of peptides with gst-CRKL. In kind it is binding. The settings on record: Table 3; fluorescence measurements.
Source text: as §1, §2, §3, §4, §5

The target in the next assay is gst-CrkSH3SH3. Nature of the assay: ELISA: biotinylated gst-CB fusion proteins binding to immobilized gst-CrkSH3SH3. As to conditions: wells coated with 100 ng/well gst-CrkSH3SH3, biotinylated gst-CB fusion protein, read-out: apparent Kd (half saturation point). Here is the method: ELISA. gst-CB-1 to -4 proteins were biotinylated with Sulfosuccinimidyl 6-(biotinamido) hexanoate (Pierce) according to the manufacturers instructions. ELISA plates (Nunc) were coated with 100 ng/well of gst-Grb2, gst-CrkSH3SH3 or gst in 0.1M NaHCO3, pH 9.6, over night at room temperature (Jones et al., 1991, Mol. Cell Biol. 11:2641). Wells were then blocked with 2% BSA. After washing three times with blocking buffer (20 mM Tris-HCl, pH 7.5, 100 mM NaCl, 0.05% Tween-20, 1 mM EDTA, 0.2% BSA and 0.1% Ovalbumin), biotinylated gst-CB fusion proteins were added at the concentrations indicated in FIG. 6. To measure bound gst-CB fusion proteins, wells were incubated with horseradish Peroxidase coupled streptavidin (Gibco). A chromogenic substrate, 2,2'-azinobis(3-ethylbenzothiazoline-6-sulfonic acid) diaminonium salt (ABTS, Pierce) was then added and the OD was measured at 405 nm after 5 and 15 min and the 5 min OD value subtracted from the 15 min OD value to yield DOD405. In each experiment, the DOD405 at saturation of SH3 domain binding sites was considered 100% . DOD405 values for all other points within the same experiment were expressed as a percentage of this 100% value. Binding to gst alone was subtracted at each data point.
gst-CrkSH3SH3, sequence (Q64010 132-296 limits assumed): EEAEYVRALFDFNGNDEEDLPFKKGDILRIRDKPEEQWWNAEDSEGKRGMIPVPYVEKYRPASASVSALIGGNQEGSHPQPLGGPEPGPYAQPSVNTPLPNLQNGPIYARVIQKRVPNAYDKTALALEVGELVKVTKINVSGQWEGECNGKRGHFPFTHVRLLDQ

Assay [1] deals with T5, gst-c-CrkSH3(1) (Example 2) (murine, UniProt Q64010). As to the kind of experiment: tryptophan fluorescence titration with gst-CrkSH3(1).
Another assay concerns the target gst-v-Crk (Avian sarcoma virus CT10 (Avian sarcoma …, UniProt P05433)). As to the kind of experiment: tryptophan fluorescence titration.
For assay [2], the target named is T5, gst-c-CrkSH3(1) (Example 2). Nature of the assay: tryptophan fluorescence titration.
For assay [3] the target is unchanged. Nature of the assay: filter binding of 35S-gst-CrkSH3(1) to blotted gst-fusion peptides.
Assay [4] shares this target. Nature of the assay: tryptophan fluorescence titration. This is another data set of the same source.
The target is the same in assay [5]. Nature of the assay: tryptophan fluorescence titration. This is another data set of the same source.
For assay [6] the target is unchanged. As to the kind of experiment: rounded value given in the summary of Example 3 for the peptide and Crk SH3-N; measured by fluorescence in Example 2.
The mark [7] stands for this setting: c-CrkSH3(1) Kd (μM), Table 2, gst-CrkSH3(1), 18° C.
[8] abbreviates: Table 2, gst-Grb2, fluorescence measurements, 18° C, read-out: Grb2SHD Kd.

T4 sequence (P46109 whole entry, species assumed): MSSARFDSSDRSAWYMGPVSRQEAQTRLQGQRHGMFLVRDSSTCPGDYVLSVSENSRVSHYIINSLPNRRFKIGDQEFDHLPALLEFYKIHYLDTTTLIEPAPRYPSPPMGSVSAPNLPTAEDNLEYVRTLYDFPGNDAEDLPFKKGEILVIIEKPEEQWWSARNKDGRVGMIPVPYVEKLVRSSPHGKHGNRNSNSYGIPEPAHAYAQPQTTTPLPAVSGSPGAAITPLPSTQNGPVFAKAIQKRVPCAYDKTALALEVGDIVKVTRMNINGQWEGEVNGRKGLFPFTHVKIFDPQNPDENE
T1 sequence (P05433 whole entry): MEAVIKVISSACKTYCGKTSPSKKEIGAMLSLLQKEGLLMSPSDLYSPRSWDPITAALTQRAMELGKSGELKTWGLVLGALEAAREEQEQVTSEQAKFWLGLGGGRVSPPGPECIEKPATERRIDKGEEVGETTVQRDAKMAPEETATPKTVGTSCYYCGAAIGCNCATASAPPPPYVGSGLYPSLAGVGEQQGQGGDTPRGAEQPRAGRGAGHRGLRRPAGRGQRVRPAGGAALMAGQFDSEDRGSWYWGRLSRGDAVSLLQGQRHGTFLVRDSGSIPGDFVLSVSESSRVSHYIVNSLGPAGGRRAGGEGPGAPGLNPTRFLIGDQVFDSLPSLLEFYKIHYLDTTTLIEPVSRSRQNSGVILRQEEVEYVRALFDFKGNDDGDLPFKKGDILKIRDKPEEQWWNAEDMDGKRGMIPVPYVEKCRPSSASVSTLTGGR

As to `CC(C)C[C@H](NC(=O)[C@H](C)NC(=O)[C@@H]1CCCN1C(=O)[C@@H]1CCCN1C(=O)[C@@H]1CCCN1)C(=O)N1CCC[C@H]1C(=O)N1CCC[C@H]1C(=O)N[C@@H](C)C(=O)N[C@@H](CCCCN)C(=O)N[C@@H](CCCNC(=N)N)C(=O)O` (H-PPPALPPAKR-OH), on v-Crk, the Kd was determined as 248 ± 10 µM. As for `CC(C)C[C@H](NC(=O)[C@@H]1CCCN1C(=O)[C@@H]1CCCN1C(=O)[C@H](CC(C)C)NC(=O)[C@H](C)NC(=O)[C@@H]1CCCN1C(=O)[C@@H]1CCCN1C(=O)[C@@H]1CCCN1)C(=O)N[C@@H](CCCCN)C(=O)N[C@@H](CCCNC(=N)N)C(=O)O` (H-PPPALPPLKR-OH), the Kd on c-CrkSH3(1) (gst-c-CrkSH3(1) Kd (μM), Table 3) was determined as 379 ± 1 µM; at v-Crk, 437 ± 6 µM. Molecule `CC(C)C[C@H](NC(=O)[C@@H]1CCCN1C(=O)[C@@H]1CCCN1C(=O)[C@@H]1CCCN1C(=O)[C@@H]1CCCN1)C(=O)N1CCC[C@H]1C(=O)N1CCC[C@H]1C(=O)N[C@@H](CCCCN)C(=O)N[C@@H](CCCCN)C(=O)N[C@@H](CCCNC(=N)N)C(=O)O` [C3Gmut(1)] (H-PPPPLPPKKR-OH) had a Kd on Grb2 SH3 domain of 203 ± 3 µM. As to `CC(C)C[C@H](NC(=O)[C@H](C)NC(=O)[C@@H]1CCCN1C(=O)[C@@H]1CCCN1C(=O)[C@@H]1CCCN1)C(=O)N1CCC[C@H]1C(=O)N1CCC[C@H]1C(=O)N[C@@H](CCCNC(=N)N)C(=O)N[C@@H](CCCCN)C(=O)N[C@@H](CCCNC(=N)N)C(=O)O` [C3Gmut(2)] (H-PPPALPPRKR-OH), the Kd at Grb2 SH3 domain stood at 23.5 ± 0.8 µM; on c-CrkSH3(1) (setting [7]), 17.2 ± 0.4 µM; on CRKL, 11.2 ± 0.5 µM.

For `CC(C)C[C@H](NC(=O)[C@H](C)NC(=O)[C@@H]1CCCN1C(=O)[C@@H]1CCCN1C(=O)[C@@H]1CCCN1)C(=O)N1CCC[C@H]1C(=O)N1CCC[C@H]1C(=O)N[C@@H](CCCCN)C(=O)N[C@@H](CCCCN)C(=O)N[C@@H](CCCNC(=N)N)C(=O)O` [CB-1 peptide], the Kd came out at 142 ± 3 µM at Grb2 SH3 domain, 1.89 ± 0.06 µM on c-CrkSH3(1) (Kd for the CrkSH3(1) domain) and 2.79 ± 0.1 µM on CRKL. For `CC(C)[C@H](NC(=O)[C@@H]1CCCN1C(=O)[C@@H]1CCCN1C(=O)[C@@H]1CCCN1)C(=O)N1CCC[C@H]1C(=O)N1CCC[C@H]1C(=O)N[C@@H](CCCNC(=N)N)C(=O)N[C@@H](CCCNC(=N)N)C(=O)N[C@@H](CCCNC(=N)N)C(=O)N[C@@H](CCCNC(=N)N)C(=O)O` [SOS-1, reference compound], the figures for the Kd at Grb2 SH3 domain, on c-CrkSH3(1) (setting [7]) and at CRKL were 3.54 ± 0.16 µM, 5.24 ± 0.16 µM and 10.5 ± 0.8 µM, respectively. With `CC[C@H](C)[C@H](NC(=O)[C@H](C)NC(=O)[C@@H]1CCCN1C(=O)[C@@H]1CCCN1)C(=O)N1CCC[C@H]1C(=O)N1CCC[C@H]1C(=O)N[C@@H](CCCNC(=N)N)C(=O)N[C@@H](CCC(N)=O)C(=O)N1CCC[C@H]1C(=O)N[C@H](C(=O)O)[C@@H](C)O` [SOS-2] (H-PPAIPPRQPT-OH), the Kd on Grb2 SH3 domain (setting [8]) is 42 ± 4 µM.

Consider `CC(C)C[C@H](NC(=O)[C@@H]1CCCN1C(=O)[C@@H]1CCCN1)C(=O)N[C@@H](CC(C)C)C(=O)N1CCC[C@H]1C(=O)N1CCC[C@H]1C(=O)N[C@@H](CCCNC(=N)N)C(=O)N[C@@H](CCC(=O)O)C(=O)N1CCC[C@H]1C(=O)N[C@H](C(=O)O)C(C)C` [SOS-3, reference compound] (H-PPLLPPREPV-OH), for which the values for the Kd at Grb2 SH3 domain and on c-CrkSH3(1) (setting [7]) were 88 ± 3 µM and 206 ± 9 µM, respectively. In the case of `CC(C)[C@H](NC(=O)[C@@H]1CCCN1C(=O)[C@@H]1CCCN1C(=O)CN)C(=O)N1CCC[C@H]1C(=O)N1CCC[C@H]1C(=O)N[C@@H](CCCNC(=N)N)C(=O)N[C@@H](CCC(N)=O)C(=O)N[C@@H](CO)C(=O)N[C@H](C(=O)O)[C@@H](C)O` [SOS-4, reference compound] (H-GPPVPPRQST-OH), the Kd at Grb2 SH3 domain (setting [8]) amounted to 94 ± 5 µM; on c-CrkSH3(1) (Table 2, gst-CrkSH3(1), 18° C, read-out: c-CrkSH3(1) Kd) it was 663 ± 3 µM.

With “gst-CB-1: gst-fusion protein containing only the single proline-rich sequence CB-1 of C3G (SPPPALPPKKRQ; also: fused to GST)”, the Kd on gst-CrkSH3SH3 was determined as 0.0104 µM. As to “gst-CB-2: gst-fusion protein containing only the single proline-rich sequence CB-2 of C3G (DTPPALPEKKRR; also: fused to GST)”, the Kd at gst-CrkSH3SH3 amounted to 0.027 µM. For “gst-CB-3: gst-fusion protein containing only the single proline-rich sequence CB-3 of C3G (EKPPPLPEKKNK; also: fused to GST)”, the Kd at gst-CrkSH3SH3 turned out to be 0.0113 µM. Still for that read-out and setting: as for “gst-CB-4: gst-fusion protein containing only the single proline-rich sequence CB-4 of C3G (APPPALPPKQRQ; also: fused to GST)”, the figure is 0.00285 µM.

B1: CB-3 peptide (peptide)
peptide: KPPPLPEKKQ
On to B1, for which the binding result in assay [1] is “binds”.

B2: peptide PPPALPPKKA (peptide)
peptide: PPPALPPKKA
Turning to B2, the Kd in the assay with gst-v-Crk was found to be 71.8 µM; in [2], 9.3 µM.

B3: CB-2 peptide (peptide)
peptide: TPPALPEKKR
Regarding B3, the binding result in assay [1] is recorded as “binds”.

B4: gst-3-11 (CB-1 gst-fusion peptide without the C-terminal Arg-12) (other)
chain: PPPALPPKK
Turning to B4, in assay [3], the binding result was “no binding”.

B5: gst-1-12 (GST-NSPPPALPPKKR) (other)
chain: NSPPPALPPKKR
modifications: not fully specified
As to B5, the binding result in assay [3] is recorded as “binds”.

B6: Lys-10Ala mutant peptide (PPPALPPAKR) (peptide)
peptide: PPPALPPAKR
In the case of B6, in assay [4], the “fold decrease of binding against the wild type CB-1 peptide” value came out at 10 fold, the “fold increase of Kd against the wild type CB-1 peptide” value worked out at 11.7 fold and the “fold reduction of binding affinity against the wild type CB-1 peptide” value amounted to 11.6 fold. Moreover, the Kd in [2] worked out at 22.1 µM.

B7: C3Gmut(1) peptide (PPPPLPPKKR) (peptide)
peptide: PPPPLPPKKR
The molecule B7 gave a Kd in assay [5] of 1.45 µM.

B8: CB-1 peptide (PPPALPPKKR) (peptide)
peptide: PPPALPPKKR
Turning to B8, the values for the Kd (in [6]; with gst-v-Crk) were around 2 µM and 25.5 µM, respectively.

B9: peptide PPPALPPKKK (peptide)
peptide: PPPALPPKKK
Consider B9, for which the Kd with gst-v-Crk turned out to be 36.2 µM; in [2], 5 µM.

B10: CB-4 peptide (peptide)
peptide: PPPALPPKQR
For the molecule B10, the binding result in assay [1] is on record as “binds”.

B11: C3Gmut(2) peptide (PPPALPPRKR) (peptide)
peptide: PPPALPPRKR
On to B11, for which, in assay [4], the “fold decrease of binding against the wild type CB-1 peptide” value was 10 fold and the “fold increase of Kd against the wild type CB-1 peptide” value is around 9 fold. In the assay with gst-v-Crk, the Kd worked out at 23.5 µM.

B12: SOS-2 peptide (PPAIPPRQPT) (peptide)
peptide: PPAIPPRQPT
Molecule B12 came in with a Kd in assay [5] of 127 µM.

B13: peptide PPPALPPKAR (peptide)
peptide: PPPALPPKAR
Take B13: the Kd in assay [2] is 5.74 µM.

B14: SOS-1 peptide (PPPVPPRRRR) (peptide)
peptide: PPPVPPRRRR
B14 gave a Kd in the assay with gst-v-Crk of 23.7 µM.
